Results reported in ChEMBL document CHEMBL1201862, “PubChem BioAssay data set” (2004).
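Method: 48-hour compound exposure of cells in 96-well plates, five concentrations, linear interpolation of endpoints. The concentration for 50% growth inhibition is given as GI50.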 The source made the active and inactive calls. Rule as the data show it: active = GI50 up to about 1.1 µM and inactive = higher.

What was measured:
Assay in all cases: DTP human tumour cell line panel, 48 h
[1] = tested on: DU-145
[2] = tested on: SF-268
[3] = tested on: HT-29
[4] = tested on: HCT-116
[5] = tested on: NCI-H460
[6] = tested on: HOP-92
[7] = tested on: HCT-15
[8] = tested on: UACC-62
[9] = tested on: MDA-MB-231
[10] = tested on: OVCAR-8
[11] = tested on: UACC-257
[12] = tested on: Malme-3M
[13] = tested on: RXF 393
[14] = tested on: SF-539
[15] = tested on: NCI-H23
[16] = tested on: SNB-75
[17] = tested on: KM12
[18] = tested on: OVCAR-5
[19] = tested on: A498
[20] = tested on: MDA-N
[21] = tested on: CCRF-CEM
[22] = tested on: NCI/ADR-RES
[23] = tested on: MCF7
[24] = tested on: HCC 2998
[25] = tested on: IGROV-1
[26] = tested on: EKVX
[27] = tested on: MOLT-4
[28] = tested on: SNB-19
[29] = tested on: SW-620
[30] = tested on: SK-MEL-28
[31] = tested on: COLO 205
[32] = tested on: HOP-62
[33] = tested on: TK-10
[34] = tested on: HL-60
[35] = tested on: M14
[36] = tested on: U-251
[37] = tested on: SF-295
[38] = tested on: OVCAR-4
[39] = tested on: RPMI-8226
[40] = tested on: PC-3
[41] = tested on: UO-31
[42] = tested on: SR
[43] = tested on: CAKI-1
[44] = tested on: T47D
[45] = tested on: OVCAR-3
[46] = tested on: K562
[47] = tested on: A549
[48] = tested on: SK-MEL-5
[49] = tested on: 786-0
[50] = tested on: MDA-MB-435
[51] = tested on: Hs-578T
[52] = tested on: SN12C
[53] = tested on: NCI-H226
[54] = tested on: SK-OV-3
[55] = tested on: NCI-H522
[56] = tested on: LOX IMVI
[57] = tested on: ACHN
[58] = tested on: SK-MEL-2

Measured: GI50

O=C1C(O)=C(Cl)C(=O)c2c(O)ccc(O)c21
> 100 µM: [7]
inactive: [1] > 100 µM | [2] > 100 µM | [3] > 100 µM | [4] > 100 µM | [5] > 100 µM | [6] > 100 µM | [8] > 100 µM | [9] > 100 µM | [10] > 100 µM | [11] > 100 µM | [12] 20.1 µM | [13] > 100 µM | [14] > 100 µM | [15] > 100 µM | [16] > 100 µM | [17] > 100 µM | [18] > 100 µM | [19] > 100 µM | [20] > 100 µM | [21] > 100 µM | [22] > 100 µM | [23] > 100 µM | [24] > 100 µM | [25] > 100 µM | [26] > 100 µM | [27] 10 µM | [28] > 100 µM | [29] > 100 µM | [30] > 100 µM | [31] > 100 µM | [32] > 100 µM | [33] > 100 µM | [34] > 100 µM | [35] > 100 µM | [36] > 100 µM | [37] > 100 µM | [38] > 100 µM | [39] > 100 µM | [40] > 100 µM | [41] > 100 µM | [42] > 100 µM | [43] > 100 µM | [44] > 100 µM | [45] > 100 µM | [46] > 100 µM | [47] > 100 µM | [48] > 100 µM | [49] > 100 µM

CC(C)=CC(=O)O[C@H]1C(=O)O[C@@H]2C[C@H]3[C@H](C)C(=O)C(O[C@@H]4O[C@H](CO)[C@@H](O)[C@H](O)[C@H]4O)=C[C@]3(C)[C@H]3[C@@H](O)[C@H](O)[C@]4(C(=O)O)OC[C@]32[C@@H]14 [BRUCEOSIDE D]
inactive: [8] 97.5 µM | [11] 98.9 µM | [15] 56.1 µM | [16] 86.1 µM | [18] 84.5 µM | [19] 79.1 µM | [20] 66.2 µM | [25] 54 µM | [29] 79.4 µM | [31] 65.8 µM | [50] 66.5 µM | [33] 71.9 µM | [40] 71 µM | [43] 90.8 µM | [44] 51.9 µM | [49] 96.6 µM

O=c1[nH]n(Cc2ccccc2CCl)c2ccc([N+](=O)[O-])cc12
60.8 µM: [7]
inactive: [51] 85.5 µM | [1] 59.7 µM | [2] 35.3 µM | [3] 34.8 µM | [4] 41.4 µM | [5] 23.8 µM | [6] 34.5 µM | [52] 52.7 µM | [8] 30.5 µM | [9] 38.4 µM | [53] 93.5 µM | [10] 40.5 µM | [54] 27.7 µM | [11] 64.4 µM | [12] 83.4 µM | [13] 32.9 µM | [14] 58.3 µM | [15] 83 µM | [17] 49.5 µM | [55] 22.9 µM | [18] > 100 µM | [19] 62.2 µM | [20] 62.1 µM | [21] 28.7 µM | [22] 29.9 µM | [23] 29.8 µM | [56] 55.7 µM | [24] 21.7 µM | [25] > 100 µM | [26] 45.2 µM | [27] 26.6 µM | [28] 48.9 µM | [57] 55.3 µM | [29] 49 µM | [30] 34.5 µM | [31] 26.1 µM | [32] 47.6 µM | [50] 35.1 µM | [33] 54.3 µM | [34] 26.6 µM | [35] 39.2 µM | [36] 42.3 µM | [58] 43.4 µM | [37] 37.8 µM | [38] 37.1 µM | [39] 32 µM | [40] 31.3 µM | [41] 88.3 µM | [42] 33.6 µM | [43] 25 µM | [45] 48.2 µM | [46] 42.4 µM | [47] 31.2 µM | [48] 13.4 µM | [49] 55.5 µM
